Where “and” joins values, the source holds several entries; their conditions need not be identical. Identical values can stand only once. Like-named read-outs stand apart in the source and are kept apart here.
Assays:
[1] = Hepatic microsomal stability assay, human; format: in vitro ADME
Experimental: The disappearance of the parent compound over time was measured by using the amount of drug at time zero as a reference. After 5 min of preincubation, 1 mM NADPH (final concentration, the same applies to the following) was added to a mixture containing 1 μM of the test compound, 0.2 mg/mL of rat or human liver microsomes (Sekisui XenoTech, LLC, Kansas City, KS), 1 mM EDTA, and 100 mM phosphate buffer (pH 7.4) and then incubated at 37 °C for 30 min by rotation at 60 rpm. An aliquot of 50 μL of the incubation mixture was sampled and added to 250 μL of chilled acetonitrile/internal standard (IS). After the centrifugation for 15 min at 3150× g at 4 °C, the supernatants were analyzed by LC-MS/MS. Hepatic microsomal stability (mL/min/kg, CLint) was calculated according to the previous report and 44.8 or 48.8 mg microsomal protein/g liver and 40.0 or 25.7 g liver/kg body weight were used as scaling factors for the rat or human, respectively.

[2] = Unbound fraction by equilibrium dialysis, medium containing 10% fetal bovine serum; format: in vitro ADME; conditions: 1 μM, equilibrium dialysis 37 °C 4 h
Experimental: An equilibrium dialysis apparatus, Rapid Equilibrium Dialysis (RED) Device Single-Use Plate with Inserts, 8K MWCO (ThermoFisher Scientific, Waltham, MA, USA), was used to determine the unbound fraction for each compound in human plasma, rat plasma, and medium containing 10% fetal bovine serum (FBS). Plasma or medium was mixed with the test compound (1 μM) and 200 μL aliquots were loaded into the apparatus and dialyzed versus 350 μL of 100 mM phosphate buffer (pH 7.4) at 37 °C for 4 h by rotation at 1000 rpm. The unbound fraction was calculated as the ratio of receiver side (buffer) to donor side (plasma) concentrations.

[3] = Eye ball concentration after topical application as eye drops; format: in vivo; conditions: Wistar, rat
Experimental: (§1) The NK-5962 solutions at 16 μM concentration in phosphate-buffered saline and at 39.7 μM concentration in 0.5% methyl cellulose 400 solution (FUJIFILM Wako Chemicals, Osaka, Japan) were prepared as eye drops and topically applied to both eyes of two Wistar rats assigned for each concentration. The eyes were enucleated 30 min after topical application, washed twice in saline, weighed, and frozen for NK-5962 measurement. In parallel, 3 μL of the NK-5962 solution at 16 μM concentration in phosphate-buffered saline was injected into the vitreous of both eyes of 2 Wistar rats. The eyes in each rat were enucleated 5 min and 2 h after the intravitreous injection, washed twice in saline, weighed, and then frozen. Both eyes of one rat served as the negative control. This study was approved by the Animal Care and Use Committee at Okayama University (Identifier OKU-2016267, OKU-2019196).
Liquid chromatography and tandem mass spectrometry instrument (LC-MS8060) equipped with Shimadzu Nexera series LC system (Shimadzu, Kyoto, Japan) were used. All compounds were analyzed in multi-reaction monitoring mode under electron spray ionization conditions. The analytical column used was a […] C18 MGIII (3 μm × 2.0 mmID × 35 mm; OSAKA SODA, Osaka, Japan) at 50 °C. […]

[4] = Eye ball concentration after intravitreous injection; format: in vivo, rat; conditions: intravitreous 16 µM (3 µL)
Experimental: as §1
Liquid chromatography and tandem mass spectrometry instrument (LC-MS8060) equipped with Shimadzu Nexera series LC system (Shimadzu, Kyoto, Japan) were used. All compounds were analyzed in multi-reaction monitoring mode under electron spray ionization conditions. The analytical column used was a […] C18 MGIII (3 μm × 2.0 mmID × 35 mm; OSAKA SODA, Osaka, Japan) at 50 °C. The gradient mobile phase consisted of 0.1% formic acid in water (mobile phase A) and 0.1% formic acid in acetonitrile (mobile phase B) at a total flow rate of 1 mL/minute. The initial mobile phase composition was 10% B, which was held constant for 0.2 min, increased in a linear fashion to 90% B over 1 min, then held constant for 0.8 min, and then finally brought back to the initial condition of 10% B over 0.01 min and re-equilibrated for 1 min. The transitions (precursor ion > product ion) of NK-5962 and IS (methyl testosterone) are 433.2 > 279.2 and 303.1 > 109.1 (positive), respectively.

Cytotoxicity test = format: cell-based
Skin sensitization test = conditions: in vivo
[5] = Acute systemic toxicity test; conditions: in vivo
[6] = Repeated-dose systemic toxicity test; conditions: in vivo
[7] = tested on: chick retinal cells including neurons and glial cells; design: method as in PMID 18414992; conditions: cited from earlier work; for The Percentage of Dead Cells in Total Cells: 2 days, per well
[8] = tested on: chick retinal pigment epithelial cells; design: method as in PMID 18414992; conditions: 6.6 × 10^−5, 6.6 × 10^−6 and 6.6 × 10^−7 M, 4 h, dark or light 320 lux; cited from earlier work
[9] = tested on: apoptotic cells in the retinal outer nuclear layer of RCS rats; design: method as in PMID 28085534; conditions: cited from earlier work

Compound: CCCCN(CCCC)c1ccc(C=Cc2sc3ccccc3[n+]2CC(=O)O)cc1.[Br-] [NK-5962, 2-[2-[4-(dibutylamino)phenyl]ethenyl]-3-carboxymethylbenzothiazolium bromide]
- Microsome Metabolic Stability Human ([1]; 1 μM, 0.2 mg/mL microsomes, 1 mM NADPH, 30 min): 54.5 µL/min/mg
- metabolic stability (in words) ([1]; human liver microsomes): moderate metabolic stability
- stability in the absence of the coenzyme NADPH ([1]; human liver microsomes, without NADPH): stable
- CLint scaled at 1 μM ([1]; human, liver microsomes, pH 7.4, 1 μM, 0.2 mg/mL microsomes, 1 mM NADPH, 30 min, read-out: Microsome Metabolic Stability Human (CLint)): 4.1 L/h/kg
- Protein-Binding (Non-Binding Ratio) 10% Fetal Bovine Serum [2]: 0.34
- concentration at 0.5 h ([3]; topical eye drop 16 µM (10 µL)): 0.14 nM
- concentration at 0.5 h ([3]; topical eye drop 39.7 µM (10 µL)): 0.96 nM
- concentration at 0.083 h ([4]; Wistar, rat, eye ball, other: intravitreous injection, 0.083 h (5 min), read-out: Mean Eye Ball Concentration): 7.25 nM
- concentration at 0.083 h ([4]; Wistar, rat, eye ball, other: intravitreous injection, 0.083 h, single eye, read-out: Eye Ball Concentration): 9.23 nM
- concentration at 2 h ([4]; Wistar, rat, eye ball, other: intravitreous injection, 2 h, single eye, read-out: Eye Ball Concentration): 1.19 nM
- concentration at 2 h ([4]; Wistar, rat, eye ball, other: intravitreous injection, 2 h, read-out: Mean Eye Ball Concentration): 1.49 nM
- concentration at 2 h ([4]; 0.083 h, single eye, read-out: Eye Ball Concentration): 5.27 nM
- concentration at 2 h ([4]; 2 h, single eye, read-out: Eye Ball Concentration): 1.78 nM
- toxicity in the cytotoxicity test (Cytotoxicity test): not toxic
- toxicity in the skin sensitization test (Skin sensitization test): not toxic
- acute systemic toxicity test [5]: not toxic
- repeated-dose systemic toxicity test [6]: not toxic
- percentage of dead cells, dependence on concentration ([7]; 2 days culture, dark or light condition, P = 0.0183 two-factor ANOVA): significantly smaller at higher concentrations
- The Percentage of Dead Cells in Total Cells ([7]; NK-5962 1.6 × 10^−5 M, light exposure yes (230 lux 9 h daily)): 1.3% and 0% and 0.5% and 0.3% and 1.9% and 3.2% and 3.0%
- The Percentage of Dead Cells in Total Cells ([7]; NK-5962 1.6 × 10^−6 M, light exposure no): 2.5% and 0.4% and 1.3% and 2.4% and 0.8% and 1.7% and 1.9% and 1.4%
- The Percentage of Dead Cells in Total Cells ([7]; NK-5962 1.6 × 10^−7 M, light exposure no): 5.1% and 2.0% and 0.3% and 1.2% and 0% and 2.3% and 2.2% and 1.3%
- percent cytotoxicity value [8]: negative in all groups
- number of TUNEL-positive cells in the outer nuclear layer of the four retinal sites (a + b + c + d) ([9]; 1.6 μM NK-5962 intravitreous, saline 139): 85
- number of TUNEL-positive cells in the outer nuclear layer of the four retinal sites (a + b + c + d) ([9]; 16 μM NK-5962 intravitreous, saline 129): 72
- number of TUNEL-positive cells in the outer nuclear layer compared to saline-injected eyes ([9]; intravitreous 16 μM, constant dark condition, P = 0.0001): significantly less
- TUNEL-positive cells in the outer nuclear layer compared to the saline-injected eyes ([9]; intravitreous 3 μL twice, 16 to 16 × 10^−2 μM, 12 h light/dark cycle): significantly less

Source: PMC8235661, “Photoelectric Dye, NK-5962, as a Potential Drug for Preventing Retinal Neurons from Apoptosis: Pharmacokinetic Studies Based on Review of the Evidence” (Life, 2021)
